The target of experiment [1] is T1, BACE1 (Homo sapiens, UniProt P56817).
T1 construct: Human HEK293 cells which are stably transfected with a vector expressing a cDNA of the human APP wt gene (APP695); endogenous in cells; host or cells: HEK293 stably expressing human APP695 wt
The experiment is described as follows: Cellular Aβ-lowering assay (Aβ40 ELISA, HEK293 cells expressing human APP695). The experiment is classed as cell-based. The settings on record: HEK293 cells stably expressing human APP695; Aβ40 in supernatant after 18-20 hrs; read-out: BACE1 cell act. Aβ40 IC50. On the procedure: Human HEK293 cells which are stably transfected with a vector expressing a cDNA of the human APP wt gene (APP695) were used to assess the potency of the compounds in a cellular assay. The cells were seeded in 96-well microtiter plates in cell culture medium (Iscove, plus 10% (v/v) fetal bovine serum, glutamine, penicillin/streptomycin) to about 80% confluence and the compounds were added at a 10× concentration in 1/10 volume of medium without FCS containing 8% DMSO (final concentration of DMSO was kept at 0.8% v/v). After 18-20 hrs incubation at 37° C. and 5% CO2 in a humidified incubator the culture supernatant was harvested for the determination of Aβ40 concentrations. 96 well ELISA plates (e.g., Nunc MaxiSorb) were coated with monoclonal antibody which specifically recognize the C-terminal end of Aβ40^10. After blocking of non-specific binding sites with e.g. 1% BSA and washing, the culture supernatants were added in suitable dilutions together with a horseradish peroxidase-coupled Aβ detection antibody (e.g., antibody 4G8, Senetek, Maryland Heights, Mo.) and incubated for 5 to 7 hrs. Subsequently the wells of the microtiter plate were washed extensively with Tris-buffered saline containing 0.05% Tween 20 and the assay was developed with tetramethylbenzidine/H2O2 in citric acid buffer. After stopping the reaction with one volume 1 N H2SO4 the reaction was measured in an ELISA reader at 450 nm wavelength. The concentrations of Aβ in the culture supernatants were calculated from a standard curve obtained with known amounts of pure Aβ peptide.

The target in experiment [2] is T2, CYP2D6 (Homo sapiens, UniProt P10635).
T2 construct: 0.2 mg/ml pooled human liver microsomes; from tissue; host or cells: pooled human liver microsomes
Kind of experiment: CYP inhibition assay, human liver microsomes, dextromethorphan. The note with it: read-out: CYP IC50 2D6. The experiment is classed as in vitro ADME. As to the method: (§1) Inhibition of cytochromes P450 (CYPs) 2C9, 2D6 and 3A4 was assessed using human liver microsomes and CYP-selective substrate metabolism reactions. 50 μl incubations were made up containing (finally) 0.2 mg/ml pooled human liver microsomes, 5 μM substrate (diclofenac for CYP2C9 [4′hydroxylase], dextromethorphan for CYP2D6 [O-demethylase] or midazolam for CYP3A4 [1′hydroxylase]), 0.25 μL DMSO containing test inhibitor and NADPH regenerating system. Test inhibitor concentrations of 50, 16.7, 5.6, 1.9, 0.6 and 0.2 μM were assessed in singlicate. Incubations were prewarmed to 37° C. for 10 minutes before initiation by addition of NADPH regenerating system. Incubations were quenched after 5 minutes (20 minutes for dextromethorphan) by addition of 50 μl cold acetonitrile containing 20 ng/ml 4-OH-diclofenac-13C6, 20 ng/mL dextrorphan-D3 and 20 ng/mL 1-OH-midazolam-D4. Quenched incubates were stored at −20° C. for at least 1 hour before centrifugation (20,000×g, 20 minutes). Supernatants were removed and diluted 1:1 with water prior to analysis using a RapidFire sample injector system and API4000 mass spectrometer. Peak areas for substrate, metabolite and stable-labelled metabolite standard were determined using MS/MS. The peak area ratios between the metabolite generated by the enzymatic reaction and the internal standard were used in subsequent calculations. The percentage of (DMSO) control activity was calculated for each incubate and IC50 values estimated by non-linear regression. Sulfaphenazole, quinidine or ketoconazole were tested in each CYP2C9, CYP2D6 or CYP3A4 inhibition experiment, respectively, to ensure assay sensitivity and reproducibility. (Validated assays for human cytochrome P450 activities^11)

Experiment [3] addresses T3, CYP2C9 (Homo sapiens, UniProt P11712).
T3 construct: 0.2 mg/ml pooled human liver microsomes; from tissue; host or cells: pooled human liver microsomes
Kind of experiment: CYP inhibition assay, human liver microsomes, diclofenac. The note with it: read-out: CYP IC50 2C9. It is filed as in vitro ADME. As to the method: as §1
(Liver microsomes are vesicles of endoplasmic reticulum, rich in cytochrome P450 enzymes.)

Experiment [4] addresses T4, cathepsin D (from human liver) (Homo sapiens, UniProt P07339).
T4 construct: cathepsin D (from human liver, Calbiochem); purchased Calbiochem; host or cells: human liver (tissue-purified)
The experiment is described as follows: Cathepsin D fluorescent substrate kinetic assay. The experiment is classed as biochemical. The note with it: pH 5.5. The source says:
The MR121 fluorescence assays described below are based on the fact that MR121 forms a non-fluorescent ground state complex with tryptophan. In solution this formation occurs at millimolar concentrations of tryptophan. The mechanism can be used to design a generic biochemical assay for proteases. A substrate peptide is labeled at the N-terminus with tryptophan and at the C-terminus with the fluorophore MR121 (for cathepsin D the 10 amino acid peptide WTSVLMAAPC-MR121 was used; for cathepsin E, MR121-CKLVFFAEDW was used). In absence of protease activity, the substrates remain intact and the MR121 fluorescence is reduced by the high local Trp-concentration. If the substrates are cleaved by the enzymes the MR121 fluorescence is recovered.
The fluorescent substrate cathepsin D and cathepsin E kinetic assays were performed at room temperature in 384-well microtiter plates (black with clear flat bottom, non binding surface plates from Corning) in a final volume of 51 μl. The test compounds were serially diluted in DMSO (15 concentrations, 1/3 dilution steps) and 1 μl of diluted compounds were mixed for 10 min with 40 μl of cathepsin D (from human liver, Calbiochem) diluted in assay buffer (100 mM sodium acetate, 0.05% BSA, pH 5.5; final concentration: 200 nM) or with 40 μl of recombinant human cathepsin E (R&D Systems) diluted in assay buffer (100 mM sodium acetate, 0.05% BSA, pH 4.5; final concentration: 0.01 nM). After addition of 10 μl of the cathepsin D substrate WTSVLMAAPC-MR121 diluted in cathepsin D assay buffer (final concentration: 300 nM) or […] cathepsin E substrate MR121-CKLVFFAEDW diluted in cathepsin E assay buffer (final concentration: 300 nM), the plates were strongly shaken for 2 minutes. The enzymatic reaction was followed in a plate: vision reader (Perkin Elmer) (excitation wavelength: 630 nm; emission: 695 nm) for at least 30 minutes in a kinetic measurement detecting an increase of MR121 fluorescence during the reaction time. The slope in the linear range of the kinetic was calculated and the IC50 of the test compounds were determined using a four parameter equation for curve fitting.

Experiment [5] deals with T5, CYP3A4 (Homo sapiens, UniProt P08684).
T5 construct: 0.2 mg/ml pooled human liver microsomes; from tissue; host or cells: pooled human liver microsomes
The experiment is described as follows: CYP inhibition assay, human liver microsomes, midazolam. The experiment is classed as in vitro ADME. The note with it: read-out: CYP IC50 3A4. On the procedure:
as §1

Experiment [6] can be described thus: in vivo effect. The note with it: @ 30 mg/kg p.o.

T3 sequence (P11712 whole entry): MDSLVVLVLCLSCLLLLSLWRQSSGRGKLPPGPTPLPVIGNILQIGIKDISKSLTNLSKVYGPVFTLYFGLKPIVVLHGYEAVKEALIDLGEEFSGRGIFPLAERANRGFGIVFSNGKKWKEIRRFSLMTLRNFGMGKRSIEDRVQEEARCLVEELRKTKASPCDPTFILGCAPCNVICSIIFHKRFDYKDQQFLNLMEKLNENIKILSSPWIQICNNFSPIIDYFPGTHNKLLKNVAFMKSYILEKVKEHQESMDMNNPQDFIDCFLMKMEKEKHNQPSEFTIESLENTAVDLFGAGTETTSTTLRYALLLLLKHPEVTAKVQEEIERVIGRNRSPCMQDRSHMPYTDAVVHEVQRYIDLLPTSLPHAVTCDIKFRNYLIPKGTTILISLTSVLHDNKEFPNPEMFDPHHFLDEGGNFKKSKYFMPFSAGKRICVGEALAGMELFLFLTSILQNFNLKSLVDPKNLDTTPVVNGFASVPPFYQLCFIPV
T1 sequence (P56817 46-501): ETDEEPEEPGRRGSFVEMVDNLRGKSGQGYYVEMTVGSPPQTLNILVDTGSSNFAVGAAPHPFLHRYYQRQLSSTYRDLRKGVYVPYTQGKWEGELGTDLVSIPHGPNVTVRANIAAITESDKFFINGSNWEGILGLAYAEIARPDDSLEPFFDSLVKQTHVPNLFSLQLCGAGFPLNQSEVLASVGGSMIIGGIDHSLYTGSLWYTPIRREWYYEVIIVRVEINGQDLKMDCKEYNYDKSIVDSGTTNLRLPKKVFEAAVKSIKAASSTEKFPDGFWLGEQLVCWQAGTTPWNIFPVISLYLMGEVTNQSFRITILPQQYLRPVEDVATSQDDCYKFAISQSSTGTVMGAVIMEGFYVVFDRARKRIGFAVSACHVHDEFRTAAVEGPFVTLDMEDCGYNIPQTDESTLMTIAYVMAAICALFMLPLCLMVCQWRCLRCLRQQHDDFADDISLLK
T5 sequence (P08684 whole entry): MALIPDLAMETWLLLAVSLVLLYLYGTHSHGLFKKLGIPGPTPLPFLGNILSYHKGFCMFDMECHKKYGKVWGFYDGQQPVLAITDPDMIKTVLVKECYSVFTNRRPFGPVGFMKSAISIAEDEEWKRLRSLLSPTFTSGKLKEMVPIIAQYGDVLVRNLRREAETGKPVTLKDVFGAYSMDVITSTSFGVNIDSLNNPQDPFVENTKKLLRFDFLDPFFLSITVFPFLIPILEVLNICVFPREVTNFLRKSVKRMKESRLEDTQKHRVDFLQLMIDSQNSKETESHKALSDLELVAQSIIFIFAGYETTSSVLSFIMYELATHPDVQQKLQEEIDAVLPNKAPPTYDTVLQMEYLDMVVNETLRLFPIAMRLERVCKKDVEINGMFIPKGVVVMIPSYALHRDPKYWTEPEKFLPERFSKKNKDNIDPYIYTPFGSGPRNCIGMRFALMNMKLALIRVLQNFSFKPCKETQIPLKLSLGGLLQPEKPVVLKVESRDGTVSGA
T4 sequence (P07339 65-162 limits assumed): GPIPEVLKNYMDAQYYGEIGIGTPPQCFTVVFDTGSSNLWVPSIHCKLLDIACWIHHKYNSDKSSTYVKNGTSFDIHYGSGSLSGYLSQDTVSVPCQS
T4 sequence (P07339 169-412 limits assumed): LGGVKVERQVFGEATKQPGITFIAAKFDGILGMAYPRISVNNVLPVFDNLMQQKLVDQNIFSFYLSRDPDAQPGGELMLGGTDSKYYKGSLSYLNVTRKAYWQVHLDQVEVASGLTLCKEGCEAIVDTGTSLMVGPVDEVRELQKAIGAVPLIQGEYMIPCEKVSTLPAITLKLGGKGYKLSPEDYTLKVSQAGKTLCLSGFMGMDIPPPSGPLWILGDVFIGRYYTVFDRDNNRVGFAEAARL
T2 sequence (P10635 whole entry): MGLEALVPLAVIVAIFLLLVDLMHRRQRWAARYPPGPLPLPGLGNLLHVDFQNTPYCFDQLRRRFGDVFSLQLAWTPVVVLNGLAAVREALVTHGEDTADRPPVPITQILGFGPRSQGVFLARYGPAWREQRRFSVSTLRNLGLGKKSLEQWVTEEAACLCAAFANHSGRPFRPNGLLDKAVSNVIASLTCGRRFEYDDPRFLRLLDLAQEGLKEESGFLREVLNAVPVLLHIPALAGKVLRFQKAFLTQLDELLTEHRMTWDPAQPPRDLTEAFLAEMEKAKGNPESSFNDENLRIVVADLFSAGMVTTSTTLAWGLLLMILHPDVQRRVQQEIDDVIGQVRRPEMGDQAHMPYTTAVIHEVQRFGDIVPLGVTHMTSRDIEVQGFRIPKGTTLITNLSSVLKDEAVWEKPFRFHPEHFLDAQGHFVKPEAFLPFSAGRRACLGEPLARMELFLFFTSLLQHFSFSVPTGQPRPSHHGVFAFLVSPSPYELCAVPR

For orientation: IC50 means the concentration that gives 50% inhibition. For the molecule `CC#CCOc1cnc(C(=O)Nc2ccc(F)c([C@@]3(C)N=C(N)O[C@@H]4CCC(F)(F)[C@@H]43)c2)cn1` [Example 1, 5-But-2-ynyloxy-pyrazine-2-carboxylic acid [3-((4S,4aR,7aR)-2-amino-5,5-difluoro-4-methyl-4,4a,5,6,7,7a-hexahydro-cyclopenta[e][1,3]oxazin-4-yl)-4-fluoro-phenyl]-amide], the half-inhibitory concentration (IC50) in experiment [1] is 0.0004 µM; in experiment [2] it was 1 to 10 µM; in experiment [3], greater than 10 µM; in experiment [4], 135 µM; in experiment [5] it was greater than 10 µM. For the same molecule, in experiment [6], the “in vivo effect (% of control)” value is reported as “A (A = less than 50% of control @ 30 mg/kg p.o.)”.
As for `C[C@]1(c2cc(NC(=O)c3ccc(C#N)cn3)ccc2F)N=C(N)O[C@@H]2CCC(F)(F)[C@@H]21` [Example 2, 5-Cyano-pyridine-2-carboxylic acid [3-((4S,4aR,7aR)-2-amino-5,5-difluoro-4-methyl-4,4a,5,6,7,7a-hexahydro-cyclopenta[e][1,3]oxazin-4-yl)-4-fluoro-phenyl]-amide], the IC50 in experiment [1] is 0.0015 µM; in experiment [2], greater than 10 µM; in experiment [3], greater than 10 µM; in experiment [4], greater than 200 µM; in experiment [5] it was greater than 10 µM. Moreover, the “in vivo effect (% of control)” value in experiment [6] was “A (A = less than 50% of control @ 30 mg/kg p.o.)”.
With `C[C@]1(c2cc(NC(=O)c3ccc(C#N)cn3)ccc2F)N=C(N)O[C@@H]2CCCC(F)(F)[C@@H]21` [Example 8, 5-Cyano-pyridine-2-carboxylic acid [3-((4S,4aR,8aR)-2-amino-5,5-difluoro-4-methyl-4a,5,6,7,8,8a-hexahydro-4H-benzo[e][1,3]oxazin-4-yl)-4-fluoro-phenyl]-amide], the IC50 in experiment [1] is 0.0022 µM; in experiment [2], greater than 10 µM; in experiment [3] it was greater than 10 µM; in experiment [4], greater than 200 µM; in experiment [5], greater than 10 µM. Moreover, the “in vivo effect (% of control)” value in experiment [6] is recorded as “A (A = less than 50% of control @ 30 mg/kg p.o.)”.

(Values after patent US9181232B2, “Difluoro-hexahydro-cyclopentaoxazinyls and difluoro-hexahydro-benzooxazinyls as BACE1 inhibitors” (Hoffmann-La Roche Inc., priority 2012, dated 2015).)
